Numbering of substitutions follows the chain as printed. Numbers in names are those of the source. Where no end group is shown, it is not given here. [ ]: non-standard residue; d: D form. Trp(1-Me) = Cn1cc(C[C@H](N)C(=O)O)c2ccccc21
B1: aureocin A53 (L-AucA, wild type) (natural protein)
chain: MSWLNFLKYIAKYGKKAVSAAWKYKGKVLEWLNVGPTLEWVWQKLKKIAGL
notes: also called AucA-wt; wild-type AucA; source: synthetic: native chemical ligation of two peptide segments and desulfurization, purified by semi-preparative HPLC
B2: AucA-W22L (natural protein)
chain: B1 chain with W22L
notes: also called W22L variant; source: synthetic: automated SPPS on rink amide protide resin

Assays:
S. aureus CW115852 = assay: microbe, parasite or virus in culture; details: broth microdilution per CSLI guidelines, cation-adjusted Mueller Hinton Broth 2, 5 × 10^5 CFU/mL, 37 °C, 20 h, range 64–0.125 µg/mL, average of three repeat assays
Experimental: (§1) Minimum inhibitory concentrations, determined by broth microdilution, are expressed as an average of three repeat assays. […] [a] MIC values expressed in μg/mL, [b] AC: American Type Culture Collection strain, [c] CW: CANWARD collection clinical isolate strain.33.
(§2) Minimum Inhibitory Concentrations (MIC) were determined for each of the bacteriocins and controls using a broth microdilution method, as per CSLI guidelines for microbial susceptibility testing. The peptides were dissolved in sterile deionized water to prepare the working stocks, with concentrations determined by UV absorbance at 280 nm[56]. Overnight cultures from the strains of interest were incubated with shaking overnight at 37 °C. Cation-adjusted Mueller Hinton Broth 2 (MHB 2) was used for the S. aureus, and S. epidermidis strains and Brain Heart Infusion (BHI) broth was utilized for the E. faecalis and E. faecium strains. The cultures were prepared and diluted to the turbidity of a 0.5 McFarland standard using MHB or BHI fresh media. Increasing concentrations of the leaderless bacteriocins were added to a 96-well polypropylene plate. The range tested for each bacteriocin was 64–0.125 µg/mL. The bacterial culture was further diluted and mixed in a 1:1 ratio with the bacteriocin solution to yield a final concentration in the wells of 5 × 10^5 CFU/mL. […] A 1:1000 dilution of the growth control was prepared in the respective media and plated onto agar (100 μL) to ensure the correct inoculum concentration (5 × 10^5 CFU/mL indicated by ≈ 50 bacterial colonies). The 96-well and agar plates were incubated at 37 °C, and growth was assessed by the formation of a pellet observable with the naked eye after 20 h. […] Each assay was performed in triplicate.
(§3) Materials and instruments […]
(§4) Minimum Inhibitory Concentration (MIC)
(§5) assays were conducted in 96-Well Clear polypropylene corner notch microplates (Corning, #11313595). For the […]

S. aureus CW113379 = assay: microbe, parasite or virus in culture; details: broth microdilution per CSLI guidelines, cation-adjusted Mueller Hinton Broth 2, 5 × 10^5 CFU/mL, 37 °C, 20 h, range 64–0.125 µg/mL, average of three repeat assays
Experimental: as §1, §2, §3, §4, §5

E. faecalis CW133003 = assay: microbe, parasite or virus in culture; details: broth microdilution per CSLI guidelines, Brain Heart Infusion broth, 5 × 10^5 CFU/mL, 37 °C, 20 h, range 64–0.125 µg/mL, average of three repeat assays
Experimental: as §1, §2, §3, §4, §5

S. aureus CW114125 = assay: microbe, parasite or virus in culture; details: broth microdilution per CSLI guidelines, cation-adjusted Mueller Hinton Broth 2, 5 × 10^5 CFU/mL, 37 °C, 20 h, range 64–0.125 µg/mL, average of three repeat assays
Experimental: as §1, §2, §3, §4, §5

S. aureus AC29213 = assay: microbe, parasite or virus in culture; details: broth microdilution per CSLI guidelines, cation-adjusted Mueller Hinton Broth 2, 5 × 10^5 CFU/mL, 37 °C, 20 h, range 64–0.125 µg/mL, average of three repeat assays
Experimental: as §1, §2, §3, §4, §5

S. epidermidis CW131612 = assay: microbe, parasite or virus in culture; details: broth microdilution per CSLI guidelines, cation-adjusted Mueller Hinton Broth 2, 5 × 10^5 CFU/mL, 37 °C, 20 h, range 64–0.125 µg/mL, average of three repeat assays
Experimental: as §1, §2, §3, §4, §5

E. faecalis CW133346 = assay: microbe, parasite or virus in culture; details: broth microdilution per CSLI guidelines, Brain Heart Infusion broth, 5 × 10^5 CFU/mL, 37 °C, 20 h, range 64–0.125 µg/mL, triplicate
Experimental: as §2, §3
(§6) Minimum Inhibitory Concentration (MIC) assays were conducted in 96-Well Clear polypropylene corner notch microplates (Corning, #11313595). For the assay media, cation adjusted Mueller Hinton Broth 2 (Sigma Aldrich, #90922) was used for the S. aureus, and S. epidermidis strains and Brain Heart Infusion broth (BD, #221812) was used for the E. faecalis and E. faecium […]
(§7) used, as well as melittin prepared by automated SPPS. Experimental bacterial strains used were procured from the American Type Culture collection (S. aureus 29213) and the Canadian Antimicrobial Resistance Alliance

S. epidermidis CW130500 = assay: microbe, parasite or virus in culture; details: broth microdilution per CSLI guidelines, cation-adjusted Mueller Hinton Broth 2, 5 × 10^5 CFU/mL, 37 °C, 20 h, range 64–0.125 µg/mL, triplicate
Experimental: as §2, §3, §6, §7

E. faecium CW131126 = assay: microbe, parasite or virus in culture; details: broth microdilution per CSLI guidelines, Brain Heart Infusion broth, 5 × 10^5 CFU/mL, 37 °C, 20 h, range 64–0.125 µg/mL, triplicate
Experimental: as §2, §3, §6, §7

E. faecium CW130826 = assay: microbe, parasite or virus in culture; details: broth microdilution per CSLI guidelines, Brain Heart Infusion broth, 5 × 10^5 CFU/mL, 37 °C, 20 h, range 64–0.125 µg/mL, triplicate
Experimental: as §2, §3, §6, §7

[1] = molecular target: the molecule itself; assay: SEC; analytical size exclusion chromatography in phosphate-buffered saline (pH 7.4), UV 210 nm

Molecule	Minimum inhibitory concentration S. aureus CW115852 (S. aureus CW115852) [µg/mL]	Minimum inhibitory concentration S. aureus CW113379 (S. aureus CW113379) [µg/mL]	Minimum inhibitory concentration E. faecalis CW133003 (E. faecalis CW133003) [µg/mL]	Minimum inhibitory concentration S. aureus CW114125 (S. aureus CW114125) [µg/mL]	Minimum inhibitory concentration S. aureus AC29213 (S. aureus AC29213) [µg/mL]	Minimum inhibitory concentration S. epidermidis CW131612 (S. epidermidis CW131612) [µg/mL]	Minimum inhibitory concentration E. faecalis CW133346 (E. faecalis CW133346) [µg/mL]	Minimum inhibitory concentration S. epidermidis CW130500 (S. epidermidis CW130500) [µg/mL]	Minimum inhibitory concentration E. faecium CW131126 (E. faecium CW131126) [µg/mL]	Minimum inhibitory concentration E. faecium CW130826 (E. faecium CW130826) [µg/mL]	stoichiometry N [1]	binding result [1]
MSWLNFLKYIAKYGKKAVSAAWKYKGKVLEWLNVGPTLEWVWQKLKKIAGL-NH2 [L-AucA, L-aureocin A53 (Met^1-Leu^51)]	16	4	4	4	4	4	4	4	2	2	–	–
MS[Trp(1-Me)]LNFLKYIAKYGKKAVSAAWKYKGKVLEWLNVGPTLEWVWQKLKKIAGL-NH2 [L-^1MeW3, L-aureocin A53 ^1MeTrp3 (Met^1-Leu^51)]	8	4	2	4	4	8	1	4	2	2	–	–
[dM][dA]G[dF][dL][dK][dV][dV][dQ][dL][dL][dA][dK][dY]G[dS][dK][dA][dV][dQ][dW][dA][dW][dA][dN][dK]G[dK][dI][dL][dD][dW][dL][dN][dA]G[dQ][dA][dI][dD][dW][dV][dV][dS][dK][dI][dK][dQ][dI][dL]G[dI][dK]-NH2 [D-LnqQ, D-lacticin Q (Met^1-Lys^53)]	4	4	2	8	4	4	2	4	2	2	–	–
[dM][dS][dW][dL][dN][dF][dL][dK][dY][dI][dA][dK][dY]G[dK][dK][dA][dV][dS][dA][dA][dW][dK][dY][dK]G[dK][dV][dL][dE][dW][dL][dN][dV]G[dP][dT][dL][dE][dW][dV][dW][dQ][dK][dL][dK][dK][dI][dA]G[dL]-NH2 [D-AucA, D-aureocin A53 (Met^1-Leu^51)]	2	4	4	4	4	4	4	4	4	2	–	–
B1	–	–	–	–	–	–	–	–	–	–	2	–
B2	–	–	–	–	–	–	–	–	–	–	–	binds

From publication PMC10354048 (Communications Chemistry, 2023)
